The series in a line: activity coefficient (dimensionless); of the first substance listed, at infinite dilution; xn = mol fraction of the nth substance listed. Conditions: 101.33 kPa, Liquid, Chromatography, x1 = 0.

SMILES strings stand for the structures. ± gives the expanded uncertainty stated by the source.

For the molecule `Cc1ccc(C)cc1` [1,4-dimethylbenzene] + CCCCC(CC)CN(CC(CC)CCCC)C(=O)C(C)C, the activity coefficient runs as follows: (323.15 K) 11.6 ± 1.2; (333.15 K) 9.01 ± 0.95; (343.15 K) 6.9 ± 0.73; (353.15 K) 5.2 ± 0.55; (363.15 K) 3.75 ± 0.4; (373.15 K) 2.89 ± 0.3.

Consider `CCCC(=O)CC` [3-hexanone] + CCCCC(CC)CN(CC(CC)CCCC)C(=O)C(C)C, for which the activity coefficient (323.15 K) came to 8.64 ± 0.91; the activity coefficient (333.15 K) stood at 6.42 ± 0.68; the activity coefficient (343.15 K) came to 4.88 ± 0.51; the activity coefficient (353.15 K) turned out to be 3.74 ± 0.39; the activity coefficient (363.15 K) amounted to 2.86 ± 0.3; the activity coefficient (373.15 K) is 2.15 ± 0.23.

These data come from the NIST ThermoML archive (doi:10.1021/acs.jced.8b00635).
